# Results as given in PubChem BioAssay AID743353 (Broad Institute, 2014).
# Activity calls are given as the source filed them.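 How the source made its calls: active means compound that lowers cell viability with a fitted AC50 at most twice its highest valid tested dose; inconclusive means flat curve with 30 to 70% loss, or poor fit; inactive means the rest.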
# Test system: not listed separately
# Assay: viability loss in HEK293 cells – cell-based, luminescence, dry powder, set 13, cytotoxicity control, dose response (AID 743353)
# Details: HEK293T viability, ATP luminescence CellTiter-Glo, 72 h; at 26 µM (top of the series)
row,Compound,"activity change, negative = cytotoxicity"
1,CS(=O)(=O)c1ccc(N2CCN(C(=O)c3ccc4c(c3)OCO4)CC2)cc1,3.29% (inactive)
2,COc1cc2c(cc1C(=O)N1CCN(c3ccc(C(C)=O)cc3)CC1)OCO2,-3.95% (inactive)
3,O=C(c1ccc2c(c1)OCO2)N1CCN(c2ccc(S(=O)(=O)C(F)F)cc2)CC1,-6.54% (inactive)
4,CC(=O)c1ccc(N2CC3CC2CN3C(=O)c2ccc3c(c2)OCO3)cc1 (stereo unspecified),4.9% (inactive)
5,CC(=O)c1ccc(N2CCN(C(=O)c3ccc4c(c3)OCO4)CC2)cc1,-2.01% (inactive)
6,CC(=O)c1ccc(N2CCCN(C(=O)c3ccc4c(c3)OCO4)CC2)cc1,0.038% (inactive)
7,CC(=O)c1ccc(N2CCN(C(=O)c3ccc4c(c3C)OCO4)CC2)cc1,-17% (inactive)
8,N#Cc1ccc(N2CCN(C(=O)c3ccc4c(c3)OCO4)CC2)cc1,-2.51% (inactive)
9,CN(C)S(=O)(=O)c1ccc(N2CCN(C(=O)c3ccc4c(c3)OCO4)CC2)cc1,-16.1% (inactive)
10,CC(=O)c1ccc(N2CCN(C(=O)c3ccc4ocnc4c3)CC2)cc1,-8.67% (inactive)
11,COc1cc(C(=O)N2CCN(c3ccc(C(C)=O)cc3)CC2)cc2c1OCO2,-13.3% (inactive)
12,O=C(c1ccc2c(c1)OCO2)N1CCN(c2ccc(OC(F)(F)F)cc2)CC1,-10.3% (inactive)
13,CC(=O)c1ccc(N2CCN(S(=O)(=O)c3ccc4c(c3)OCO4)CC2)cc1,-12.5% (inactive)
14,CC(=O)c1ccc(N2CCN(C(=O)c3cc(Cl)c4c(c3)OCO4)CC2)cc1,-6.52% (inactive)
15,CC(=O)c1ccc(N2CCN(C(=O)Nc3ccc4c(c3)OCO4)CC2)cc1,-0.537% (inactive)
16,CC(=O)c1ccc(N2CCN(C(=O)c3ccc4snnc4c3)CC2)cc1,-9.09% (inactive)
17,O=C(c1ccc2c(c1)OCO2)N1CCN(c2ccc(C(F)(F)F)cc2)CC1,-8.83% (inactive)
18,CC(=O)c1ccc(N2CCN(C(=O)c3cccc4c3OCO4)CC2)cc1,0.216% (inactive)
19,CC(=O)c1ccc(N2CCN(C(=O)c3ccc(Cl)c(Cl)c3)CC2)cc1,-9.71% (inactive)
20,CC(=O)c1ccc(N2CCN(C(=O)c3cc4c(cc3Cl)OCO4)CC2)cc1,-7.51% (inactive)
21,CC(=O)c1ccc(N2CCN(C(=O)c3cc4c(cn3)OCO4)CC2)cc1,-11.9% (inactive)
22,CC(=O)c1ccc(N2CCN(C(=O)c3ccc4c(c3)OC(F)(F)O4)CC2)cc1,-14.8% (inactive)
23,COc1ccc(C(=O)N2CCN(c3ccc(C(C)=O)cc3)CC2)cc1OC,-1.09% (inactive)

# Test system: HEK293T viability, ATP luminescence CellTiter-Glo, 72 h
# Assay: as above
# Details: not given
row,Compound,AC50
1,O=C(c1ccc2c(c1)OCO2)N1CCN(c2ccc(S(=O)(=O)C(F)(F)F)cc2)CC1,> 52 µM (inactive)
2,CC(=O)c1ccc(N2CCN(C(=O)c3ccc4c(c3)OC(C)(C)O4)CC2)cc1,> 52 µM (inactive)
3,CC(=O)c1ccc(N2CCN(C(=O)c3cc4c(cc3C)OCO4)CC2)cc1,> 52 µM (inactive)
